The assay concerns hct116 cells transfected with GFP-tagged Δ133p53 isoforms. Briefly: Matrigel Transwell invasion assay in the presence of the ROCK inhibitor. Conditions: Y27632 at 10 μM; cells expressing Δ133p53 isoforms invading through Matrigel. It is filed as cell-based. As for the experimental part:
Y27632 was purchased from calbiochem and was used at 10 μM in all experiments. The quantification of cell invasion was carried out in Transwell cell culture chambers containing fluorescence-blocking polycarbonate porous membrane inserts (Fluoroblock; #351152; BD Biosciences; pore size 8 μm). 100 μl of 2 mg/mL Matrigel with reduced growth factors (a commercially prepared reconstituted BM from Englebreth-Holm-Swarm tumours, #354230; BD Biosciences) were prepared in a Transwell. Cells were transfected and treated or not with Y27632 as monolayers before trypsinization and plating (10·10^4) in 2% FCS containing media on top of a thick layer (around 500 μm) of Matrigel contained within the upper chamber of a Transwell. Controls were left untreated. The upper and lower chambers were then filled with respectively 2% FCS containing media and media with 10% FCS, thus establishing a soluble gradient of chemo-attractant that permits cell invasion throughout the Matrigel. Cells were allowed to invade at 37° C., 5% CO2 through the gel before fixing for 15 min in 3.7% formaldehyde. Cells that had invaded through the Matrigel were detected on the lower side of the filter by GFP fluorescence and counted for cell number. All the surface of the filter is counted and each assay was performed twice in triplicate for each condition. […]

Data on one compound can be found in patent US20120115151A1, “METHOD FOR TESTING A SUBJECT THOUGHT TO BE PREDISPOSED TO HAVING METASTATIC CANCER USING DELTA133P53BETA” (CENTRE NATIONAL DE LA RECHERCHE SCIENTIFIQUE (CNRS), priority 2009, published 2012).

Consider `C[C@@H](N)[C@H]1CC[C@H](C(=O)Nc2ccncc2)CC1` [Y27632], for which the “invasiveness of transfected cells” value is given as “highly reduced”.
